Measured values taken from ChEMBL document CHEMBL1201862, “PubChem BioAssay data set” (2004).
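A five-concentration, 48-hour dose response in 96-well plates underlies each endpoint, interpolated linearly between surrounding concentrations. GI50: concentration for 50% inhibition of growth.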 Active and inactive are the calls of the source. Cut-off read from the data, not from the text of the source: active = GI50 up to about 1.1 µM and inactive = higher.

How the values were obtained:
Assay in all cases: NCI-60 cell line screen, 48 h
[1] = system: 786-0
[2] = system: A498
[3] = system: A549
[4] = system: ACHN
[5] = system: BT-549
[6] = system: CAKI-1
[7] = system: CCRF-CEM
[8] = system: COLO 205
[9] = system: DU-145
[10] = system: EKVX
[11] = system: HCC 2998
[12] = system: HCT-116
[13] = system: HCT-15
[14] = system: HL-60
[15] = system: HOP-62
[16] = system: HOP-92
[17] = system: HT-29
[18] = system: IGROV-1
[19] = system: K562
[20] = system: KM12
[21] = system: LOX IMVI
[22] = system: M14
[23] = system: MCF7
[24] = system: MDA-MB-231
[25] = system: MDA-MB-435
[26] = system: MOLT-4
[27] = system: NCI-H226
[28] = system: NCI-H23
[29] = system: NCI-H460
[30] = system: NCI-H522
[31] = system: NCI/ADR-RES
[32] = system: OVCAR-3
[33] = system: OVCAR-4
[34] = system: OVCAR-5
[35] = system: OVCAR-8
[36] = system: PC-3
[37] = system: RPMI-8226
[38] = system: RXF 393
[39] = system: SF-268
[40] = system: SF-295
[41] = system: SF-539
[42] = system: SK-MEL-28
[43] = system: SK-MEL-2
[44] = system: SK-MEL-5
[45] = system: SK-OV-3
[46] = system: SN12C
[47] = system: SNB-75
[48] = system: SR
[49] = system: SW-620
[50] = system: T47D
[51] = system: TK-10
[52] = system: U-251
[53] = system: UACC-257
[54] = system: UACC-62
[55] = system: UO-31
[56] = system: Hs-578T
[57] = system: MDA-N
[58] = system: Malme-3M
[59] = system: SNB-19

**Q.** What does the source list for `COc1ccc(COCCOCc2nc(C#N)c(N)o2)cc1`?
**A.** GI50 [1]: > 100 µM (inactive); GI50 [2]: > 100 µM (inactive); GI50 [3]: > 100 µM (inactive); GI50 [4]: > 100 µM (inactive); GI50 [5]: > 100 µM (inactive); GI50 [6]: 89.9 µM (inactive); GI50 [7]: 29 µM (inactive); GI50 [8]: > 100 µM (inactive); GI50 [9]: > 100 µM (inactive); GI50 [10]: > 100 µM (inactive); GI50 [11]: > 100 µM (inactive); GI50 [12]: > 100 µM (inactive); GI50 [13]: > 100 µM; GI50 [14]: > 100 µM (inactive); GI50 [15]: > 100 µM (inactive); GI50 [16]: > 100 µM (inactive); GI50 [17]: > 100 µM (inactive); GI50 [18]: > 100 µM (inactive); GI50 [19]: > 100 µM (inactive); GI50 [20]: > 100 µM (inactive); GI50 [21]: > 100 µM (inactive); GI50 [22]: > 100 µM (inactive); GI50 [23]: > 100 µM (inactive); GI50 [24]: > 100 µM (inactive); GI50 [25]: > 100 µM (inactive); GI50 [26]: > 100 µM (inactive); GI50 [27]: > 100 µM (inactive); GI50 [28]: > 100 µM (inactive); GI50 [29]: > 100 µM (inactive); GI50 [30]: 6.79 µM (inactive); GI50 [31]: > 100 µM (inactive); GI50 [32]: > 100 µM (inactive); GI50 [33]: > 100 µM (inactive); GI50 [34]: > 100 µM (inactive); GI50 [35]: > 100 µM (inactive); GI50 [36]: > 100 µM (inactive); GI50 [37]: > 100 µM (inactive); GI50 [38]: > 100 µM (inactive); GI50 [39]: > 100 µM (inactive); GI50 [40]: > 100 µM (inactive); GI50 [41]: > 100 µM (inactive); GI50 [42]: > 100 µM (inactive); GI50 [43]: > 100 µM (inactive); GI50 [44]: > 100 µM (inactive); GI50 [45]: > 100 µM (inactive); GI50 [46]: > 100 µM (inactive); GI50 [47]: > 100 µM (inactive); GI50 [48]: > 100 µM (inactive); GI50 [49]: > 100 µM (inactive); GI50 [50]: > 100 µM (inactive); GI50 [51]: > 100 µM (inactive); GI50 [52]: > 100 µM (inactive); GI50 [53]: > 100 µM (inactive); GI50 [54]: > 100 µM (inactive); GI50 [55]: > 100 µM (inactive)

**Q.** For `Cc1ccc(CNc2ccc(Br)cc2)cc1`, which GI50 [1] is on record?
**A.** Its GI50 is 48.3 µM (inactive).

**Q.** And the GI50 [2]?
**A.** Its GI50 is 29.3 µM (inactive).

**Q.** What about the GI50 [3] of the same compound?
**A.** Its GI50 is 23.8 µM (inactive).

**Q.** What about the GI50 [4] of the same compound?
**A.** Its GI50 is 11.4 µM (inactive).

**Q.** And the GI50 [6]?
**A.** Its GI50 is 31.6 µM (inactive).

**Q.** And the GI50 [7]?
**A.** Its GI50 is 11.5 µM (inactive).

**Q.** And the GI50 [8]?
**A.** The GI50 was 16.5 µM (inactive).

**Q.** What about the GI50 [9] of the same compound?
**A.** Its GI50 is 90.4 µM (inactive).

**Q.** And the GI50 [10]?
**A.** Its GI50 is 25.6 µM (inactive).

**Q.** And the GI50 [11]?
**A.** The GI50 was 20.6 µM (inactive).

**Q.** And the GI50 [12]?
**A.** Its GI50 is 26.7 µM (inactive).

**Q.** And the GI50 [13]?
**A.** Its GI50 is 10.4 µM.

**Q.** And the GI50 [14]?
**A.** Its GI50 is 25.2 µM (inactive).

**Q.** And the GI50 [15]?
**A.** Its GI50 is 83.2 µM (inactive).

**Q.** And the GI50 [16]?
**A.** Its GI50 is 15 µM (inactive).

**Q.** And the GI50 [17]?
**A.** Its GI50 is 28.2 µM (inactive).

**Q.** What about the GI50 [56] of the same compound?
**A.** The GI50 was 70.6 µM (inactive).

**Q.** And the GI50 [19]?
**A.** Its GI50 is 22.9 µM (inactive).

**Q.** What about the GI50 [20] of the same compound?
**A.** The GI50 was 16.3 µM (inactive).

**Q.** What about the GI50 [21] of the same compound?
**A.** Its GI50 is 2.01 µM (inactive).

**Q.** What about the GI50 [22] of the same compound?
**A.** Its GI50 is 59.6 µM (inactive).

**Q.** And the GI50 [23]?
**A.** Its GI50 is 18.7 µM (inactive).

**Q.** What about the GI50 [24] of the same compound?
**A.** The GI50 was 19.3 µM (inactive).

**Q.** And the GI50 [25]?
**A.** The GI50 was 22.8 µM (inactive).

**Q.** What about the GI50 [57] of the same compound?
**A.** The GI50 was 25.4 µM (inactive).

**Q.** And the GI50 [26]?
**A.** The GI50 was 44.8 µM (inactive).

**Q.** And the GI50 [58]?
**A.** Its GI50 is 21.5 µM (inactive).

**Q.** And the GI50 [27]?
**A.** Its GI50 is 60 µM (inactive).

**Q.** And the GI50 [28]?
**A.** Its GI50 is 50.2 µM (inactive).

**Q.** And the GI50 [29]?
**A.** The GI50 was 23.8 µM (inactive).

**Q.** What about the GI50 [30] of the same compound?
**A.** The GI50 was 17.7 µM (inactive).

**Q.** And the GI50 [31]?
**A.** The GI50 was 29.4 µM (inactive).

**Q.** And the GI50 [32]?
**A.** Its GI50 is 34.8 µM (inactive).

**Q.** What about the GI50 [34] of the same compound?
**A.** The GI50 was > 100 µM (inactive).

**Q.** And the GI50 [35]?
**A.** Its GI50 is 16.3 µM (inactive).

**Q.** What about the GI50 [36] of the same compound?
**A.** The GI50 was 31.6 µM (inactive).

**Q.** And the GI50 [37]?
**A.** The GI50 was 3.44 µM (inactive).

**Q.** What about the GI50 [38] of the same compound?
**A.** Its GI50 is 23.1 µM (inactive).

**Q.** And the GI50 [39]?
**A.** Its GI50 is 31.9 µM (inactive).

**Q.** And the GI50 [40]?
**A.** Its GI50 is 47.8 µM (inactive).

**Q.** What about the GI50 [41] of the same compound?
**A.** Its GI50 is 36.8 µM (inactive).

**Q.** And the GI50 [42]?
**A.** The GI50 was 87.5 µM (inactive).

**Q.** And the GI50 [44]?
**A.** The GI50 was 6.71 µM (inactive).

**Q.** What about the GI50 [45] of the same compound?
**A.** The GI50 was 53.8 µM (inactive).

**Q.** And the GI50 [46]?
**A.** The GI50 was 20.9 µM (inactive).

**Q.** What about the GI50 [59] of the same compound?
**A.** The GI50 was > 100 µM (inactive).

**Q.** And the GI50 [47]?
**A.** The GI50 was 37.3 µM (inactive).

**Q.** What about the GI50 [48] of the same compound?
**A.** Its GI50 is 18.8 µM (inactive).

**Q.** What about the GI50 [49] of the same compound?
**A.** Its GI50 is 37.5 µM (inactive).

**Q.** What about the GI50 [50] of the same compound?
**A.** Its GI50 is 29.5 µM (inactive).

**Q.** And the GI50 [51]?
**A.** Its GI50 is 40 µM (inactive).

**Q.** What about the GI50 [52] of the same compound?
**A.** The GI50 was 28.1 µM (inactive).

**Q.** And the GI50 [53]?
**A.** The GI50 was 24.9 µM (inactive).

**Q.** And the GI50 [54]?
**A.** The GI50 was 4.41 µM (inactive).

**Q.** What about the GI50 [55] of the same compound?
**A.** The GI50 was 13.5 µM (inactive).
